Data as given in patent EP1001810B1, “PHARMACEUTICAL COMPOSITION WITH NEUROTROPHIC-LIKE BIOLOGICAL ACTIVITY” (McGill University, priority 1997, dated 1999).
Where a SMILES comes first, the peptide text is derived from it. Bridges are numbered along the chain shown (N, C = ends).

Columns and labels:
TrkA = TrkA (Homo sapiens, UniProt P04629); details: binds TrkA specifically (LeSauteur 1995); read-out: apparent Kd; cited from earlier work
4-3.6 cells = assay: Cell survival in SFM challenged with tyrosine kinase inhibitor K252a; type: cell-based, rat; details: highest concentration tested (500 nM)
Method: 5,000 cells/well in protein-free media (PFHM-II, GIBCO, Toronto, Ontario) containing 0.1% BSA (Crystalline fraction V, Sigma, St. Louis MO) were added to 96 well plates (Falcon, Mississauga, Ontario). The cultures were untreated or supplemented with serial dilutions of neurotrophins (positive control), test mAbs, or mouse IgG (negative control). The survival profile of the cells was quantitated using the MTT colorimetric assay after 48-72 hours. Percent protection was standardized relative to 1 nM NGF concentrations using the MTT optical density (OD 590 nm) and following formula: [(ODtest -ODuntreated )/(OD1nM NGF-ODuntreated )] × 100. [formula] The OD of untreated samples (SFM only) were ~10% of 1 nM NGF control.
Some survival experiments were also carried out in the presence of various concentrations of the tyrosine kinase inhibitor K252a. The concentrations of K252a used were previously reported.
Assays were done as described in Table 1 legend. 4-3.6 cell survival in SFM achieved by incubation with the indicated ligands. Optimal ligand concentrations were used as per Table 3 (1 nM NGF, 5 nM 5C3 mAb and 5 nM 5C3 + 0.5 nM MC192 mAbs) . Cells were challenged with various concentrations of K252a and % survival was calculated using 1 nM NGF as 100% standard. K252a inhibits both NGF and mAb-mediated survival in a dose dependent manner and to a similar relative degree.

Chain of TrkA (P04629 33-796, species assumed): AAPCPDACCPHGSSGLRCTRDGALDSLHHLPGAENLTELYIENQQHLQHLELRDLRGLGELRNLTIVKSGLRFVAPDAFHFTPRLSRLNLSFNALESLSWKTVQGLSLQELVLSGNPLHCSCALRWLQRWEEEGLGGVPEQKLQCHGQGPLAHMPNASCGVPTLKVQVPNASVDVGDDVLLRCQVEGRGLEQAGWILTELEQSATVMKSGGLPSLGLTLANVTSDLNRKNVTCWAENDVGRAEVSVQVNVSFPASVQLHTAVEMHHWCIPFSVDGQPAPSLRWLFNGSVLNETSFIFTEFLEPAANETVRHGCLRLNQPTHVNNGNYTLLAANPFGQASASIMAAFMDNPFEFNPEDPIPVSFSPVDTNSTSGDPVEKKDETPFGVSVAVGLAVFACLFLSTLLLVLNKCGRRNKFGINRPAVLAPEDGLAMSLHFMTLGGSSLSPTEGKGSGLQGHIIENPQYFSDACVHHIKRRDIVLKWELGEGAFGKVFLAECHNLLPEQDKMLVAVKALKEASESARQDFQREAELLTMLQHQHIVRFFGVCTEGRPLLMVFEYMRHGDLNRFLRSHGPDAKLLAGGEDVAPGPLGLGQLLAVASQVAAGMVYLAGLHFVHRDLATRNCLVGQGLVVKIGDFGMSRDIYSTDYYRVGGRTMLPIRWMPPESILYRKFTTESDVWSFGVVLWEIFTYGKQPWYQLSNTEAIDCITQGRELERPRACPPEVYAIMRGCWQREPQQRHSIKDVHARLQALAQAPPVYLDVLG

| Structure (SMILES) | Kd (TrkA) | toxicity to 4-3.6 cells (4-3.6 cells) |
| --- | --- | --- |
| CC(=O)N[C@@H](Cc1ccc(O)cc1)C(=O)N[C@H]1CSSC[C@@H](C(=O)N[C@@H](Cc2ccc(O)cc2)C(=O)O)NC(=O)[C@H](CCC(N)=O)NC(=O)[C@H](CCCCN)NC(=O)[C@H](CCC(=O)O)NC(=O)[C@H](CC(=O)O)NC(=O)[C@H]([C@@H](C)O)NC1=O [C(92-96)] (Ac-YCTDEKQCY-OH; disulfide 2-8) | ~100 nM | – |
| COC(=O)[C@@]1(O)C[C@H]2O[C@]1(C)n1c3ccccc3c3c4c(c5c6ccccc6n2c5c31)C(=O)NC4 [K252a] | – | not toxic |
